Data reported in PMC12391994, “Synthesis of a fac-Tricarbonylrhenium(I) Complex with Pyrithione, Its Physicochemical Characterization, and Assessment of Biological Effects” (ACS Omega, 2025).
Where two headings read alike, the source gives them in different places.

What was measured:
[1] = biological target: T1, cathepsin B (endopeptidase activity) (Homo sapiens, UniProt P07858); assay: Relative inhibition of cathepsin B endopeptidase activity; type: biochemical; conditions: for relative inhibition cathepsin B endopeptidase: 50 μM, substrate Z-Arg-Arg-AMC, pH 6.0
T1 construct: made in house; host or cells: E. coli
From the text: (§1) Relative inhibition is expressed as a percentage of the decrease in reaction velocity in the presence of an inhibitor, in comparison to the reaction velocity in the absence of an inhibitor. For that purpose, the specific fluorogenic substrates Z-Arg-Arg-7-amido-4-methylcoumarin (Z-Arg-Arg-AMC) and 2-aminobenzoyl (Abz)-Gly-Ile-Val-Arg-Ala-Lys-(Dnp)-OH were used for cathepsin B endopeptidase and exopeptidase activities, respectively, and Z-Phe-Arg-AMC was used for cathepsin L and V activities.
(§2) Human recombinant cathepsin B was expressed in E. coli, recombinant cathepsin V was expressed in Pichia pastoris, and human recombinant cathepsin L was expressed in E. coli, as reported. − For the determination of cathepsin B endopeptidase and exopeptidase activities, 100 mM phosphate buffer (pH 6.0) and 60 mM acetate buffer (pH 5.0) were used, respectively, and for the determination of cathepsin V and L activities, 100 mM acetate buffer (pH 5.5) was used. All buffers contained 0.1% PEG 8000 (Sigma-Aldrich, St. Louis, MO), 5 mM cysteine, and 1.5 mM EDTA. Prior to the assay, the enzymes were activated in the assay buffer for 5 min at 37 °C.
(§3) To determine the effect of inhibitors on enzyme activity, the following substrates were used: Z-Arg-Arg-AMC (final concentration 5 μM, Z-RR-AMC; Bachem, Bubendorf, Switzerland) for cathepsin B endopeptidase activity, Abz-Gly-Ile-Val-Arg-Ala-Lys-(Dnp)-OH (final concentration 1 μM, Abz-GIVRAK-(Dnp)-OH; Bachem) for cathepsin B exopeptidase activity, and Z-Phe-Arg-AMC (final concentration 2 μM, Z-FR-AMC; Bachem) for cathepsin V and L activity. The substrate ([…]) at a final concentration and inhibitor ([…]) at a concentration of 50 μM were added to the wells of a black microplate. The reaction was then initiated by adding 90 μL of activated enzyme (final concentrations: 5 nM cathepsin B for its endopeptidase activity, 0.5 nM cathepsin B for its exopeptidase activity, 2.5 ng/mL for cathepsin V, and 0.02 nM for cathepsin L) in the assay buffer. The formation of fluorescent degradation products during the reaction was continuously monitored at 460 ± 10 nm with excitation at 380 ± 20 nm for Z-Arg-Arg-AMC and Z-Phe-Arg-AMC and at 420 ± 10 nm with excitation at 320 ± 20 nm for Abz-Gly-Ile-Val-Arg-Ala-Lys(Dnp)-OH at 37 °C on a Tecan Infinite M1000 (Mannedorf, Switzerland) spectrofluorometer. All assay mixtures contained 5% (v/v) DMSO. To prevent false-positive inhibition due to the formation of compound aggregates, 0.01% Triton X-100 was used. All measurements were performed in triplicate and repeated twice. The relative inhibition was calculated using the following equation: relative inhibition (%) = 100(1 – v i/v o), where v i and v o designate the reaction velocities in the presence and absence of inhibitor, respectively.

[2] = biological target: T2, cathepsin B (exopeptidase activity) (Homo sapiens, UniProt P07858); assay: Relative inhibition of cathepsin B exopeptidase activity; type: biochemical; conditions: 50 μM; substrate Abz-Gly-Ile-Val-Arg-Ala-Lys-(Dnp)-OH; pH 5.0
T2 construct: made in house; host or cells: E. coli
From the text: as §1, §2, §3

cathepsin L = biological target: T3, cathepsin L (Homo sapiens, UniProt P07711); assay: Relative inhibition of cathepsin L; type: biochemical; conditions: for relative inhibition cathepsin L: 50 μM, substrate Z-Phe-Arg-AMC, pH 5.5
T3 construct: made in house; host or cells: E. coli
From the text: as §1, §2, §3

cathepsin V = biological target: T4, cathepsin V (Homo sapiens, UniProt O60911); assay: Relative inhibition of cathepsin V; type: biochemical; conditions: for relative inhibition cathepsin V: 50 μM, substrate Z-Phe-Arg-AMC, pH 5.5
T4 construct: made in house; host or cells: Pichia pastoris
From the text: as §1, §2, §3

[3] = pH-dependent UV-vis spectrophotometry (solution speciation, pKa of aqua ligand); type: physicochemical
From the text: However, at pH > ∼8, the spectrum changes considerably (Figure ).
The isosbestic point indicates a single equilibrium process, which is most likely deprotonation of the coordinated aqua ligand in complex 4a. This process was studied in our previous work for similar fac-[Re(CO)3] complexes formed with (N,N)-bearing ligands, and the calculated pK a (H2O) is around 8. […] Similar pK a values in the presence and absence of the chloride ions indicate a low chloride affinity of the aqua complex. Based on these values, the fraction of [Re(CO)3(pth)(H2O)] is 100% at pH = 7.4. The analogous half-sandwich complex [Ru(cym)(pth)(H2O)]^+ was also characterized by high solution stability, and a similarly high pK a value (10.34 (0.2 M KCl)).
For the solution studies, an Agilent Cary 3500 spectrophotometer was utilized to obtain UV–vis spectra in the wavelength range of 200–1100 nm. The path length ( l ) was 1 cm in all cases. The concentrations of the complex were between 10 and 60 μM. For investigation of the effect of chloride ions, the samples contained 60 μM complex and 0–7300 equiv of Cl^–. For HSA-containing samples, complex concentrations were 60 μM, and 0.5 equiv of biomolecule (or 6 equiv of MIM) was added for kinetic studies, respectively. Individual samples contained 0–34 μM HSA. The computer program HypSpec was used to obtain equilibrium constants.

[4] = biological target: T5, human serum albumin (HSA) (Homo sapiens, UniProt P02768); conditions: reported value for similar complex; cited from earlier work
T5 construct: purchased Sigma-Aldrich/Merck A8763

S. aureus ATCC 25923 [5] = tested on: S. aureus ATCC 25923; design: method as in our previous work; conditions: only on S. aureus strain; ref our previous work; cited from earlier work
HSV-2 = tested on: HSV-2; design: method as in our previous work; conditions: ref our previous work; cited from earlier work
Colo205 cells = assay: MTT cytotoxicity assay, Colo205; type: cell-based, human; conditions: Homo sapiens, read-out: IC50 Colo205
Method: (§4) Its cytotoxicity was determined in the human HeLa cervical cancer cell line, the drug-sensitive Colo205 and its resistant counterpart, the ABCB1 expressing Colo320 colon adenocarcinoma cancer cell lines, using the colorimetric 3-(4,5-dimethylthiazol-2-yl)-2,5-diphenyltetrazolium bromide (MTT) test. To investigate the selectivity toward cancer cells, the noncancerous fibroblast CCD-19Lu cell line was included.
Drug-sensitive Colo205 (ATCC-CCL-222) and ABCB1 (MDR1)-LRP expressing and doxorubicin-resistant Colo320/MDR-LRP (ATCC-CCL-220.1) human colonic adenocarcinoma cell lines were purchased from LGC Promochem (Teddington, U.K.). The cells were cultured in RPMI 1640 medium supplemented with 10% heat-inactivated fetal bovine serum, 2 mM L-glutamine, 1 mM Na-pyruvate, and 10 mM HEPES.
(§5) The tested compound was dissolved in DMSO to prepare a 5 mM stock solution, which was diluted in complete culture medium, to study the effect of compounds on cell growth of human colonic adenocarcinoma cell lines. Doxorubicin was used as the positive control. The cells were treated with a trypsin-versene (EDTA) solution. Cells were adjusted to a density of 1 × 10^4 cells in 100 μL of the appropriate culture medium and were added to each well, with the exception of the medium control wells. Except for the semiadherent Colo205 and Colo320 cell lines, the other adherent cell lines were seeded 24 h prior to the assay. Then, stock solutions were diluted in the appropriate culture medium, and 2-fold serial dilutions of compounds were prepared in 100 μL of the medium, horizontally. The final volume of the wells containing compounds and cells was 200 μL. The plates were incubated at 37 °C for 72 h; at the end of the incubation period, 20 μL of MTT solution (from a stock solution of 5 mg/mL) was added to each well. […] Cell growth was determined by measuring the optical density (OD) at 540/630 nm with a Multiscan EX ELISA reader (Thermo Labsystems, Cheshire, WA). […]

S. aureus ATCC 25923 [6] = assay: Antibacterial MIC assay, S. aureus ATCC 25923; type: cell-based, Staphylococcus aureus; conditions: Staphylococcus aureus, ATCC25923; 18 h, visual inspection
Method: (§6) The antibacterial effect of the complex was tested against the Gram-negative strain Escherichia coli (E. coli) ATCC 25922, the Gram-positive reference strain Staphylococcus aureus (S. aureus) ATCC 25923, and the methicillin-resistant S. aureus MRSA ATCC 43300 strain. MRSA strains are responsible for several difficult-to-treat hospital-acquired infections.
(§7) The following bacterial strains were used in our experiments: Gram-positive S. aureus American Type Culture Collection (ATCC) 25923 as the methicillin-susceptible reference bacterial strain; methicillin-resistant S. aureus ATCC 43300 (MRSA) strain; E. coli ATCC 25922 as a Gram-negative bacterial strain.
(§8) MIC values of the complexes were determined in 96-well plates based on the Clinical and Laboratory Standard Institute guidelines (CLSI guidelines). The stock solutions of the compound (dissolved in DMSO at 5 mM concentration) were diluted in 100 μL of Mueller Hinton Broth. Then, 10^–4 dilution of an overnight bacterial culture in 100 μL of medium was added to each well, with the exception of the medium control wells.

[7] = tested on: S. aureus MRSA ATCC 43300; assay: Antibacterial MIC assay, S. aureus MRSA ATCC 43300; type: cell-based, Staphylococcus aureus; conditions: Staphylococcus aureus, 18 h, read-out: MIC S. aureus MRSA ATCC 43300
Method: as §6, §7, §8

E. coli ATCC 25922 = assay: Antibacterial MIC assay, E. coli ATCC 25922; type: cell-based, Escherichia coli; conditions: Escherichia coli, ATCC25922, 18 h, read-out: MIC E. coli ATCC 25922
Method: as §6, §7, §8

CCD-19Lu cells = assay: MTT cytotoxicity assay, CCD-19Lu; type: cell-based, human; conditions: Homo sapiens, CCD 19Lu, 72 h incubation, noncancerous fibroblast
Method: as §4
as §5, with “horizontally.” for “horizontally. The final volume of the wells containing compounds and cells was 200 μL. The plates were incubated at 37 °C for 72 h; at the end of the incubation period, 20 μL of MTT solution (from a stock solution of 5 mg/mL) was added to each well.”

T3 sequence (P07711 114-333): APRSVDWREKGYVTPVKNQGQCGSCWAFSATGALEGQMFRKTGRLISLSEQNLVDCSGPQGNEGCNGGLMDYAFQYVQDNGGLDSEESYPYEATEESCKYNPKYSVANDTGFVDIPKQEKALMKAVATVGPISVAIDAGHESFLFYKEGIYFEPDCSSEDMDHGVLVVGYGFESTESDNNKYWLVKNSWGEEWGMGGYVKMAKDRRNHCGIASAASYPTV
T4 sequence (O60911 114-334): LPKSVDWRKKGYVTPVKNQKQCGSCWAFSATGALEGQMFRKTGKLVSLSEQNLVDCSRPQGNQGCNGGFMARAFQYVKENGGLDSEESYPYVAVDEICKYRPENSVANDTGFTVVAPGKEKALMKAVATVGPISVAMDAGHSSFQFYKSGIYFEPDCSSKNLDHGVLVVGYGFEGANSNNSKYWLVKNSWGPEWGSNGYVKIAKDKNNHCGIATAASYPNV
T5 sequence (P02768 25-609): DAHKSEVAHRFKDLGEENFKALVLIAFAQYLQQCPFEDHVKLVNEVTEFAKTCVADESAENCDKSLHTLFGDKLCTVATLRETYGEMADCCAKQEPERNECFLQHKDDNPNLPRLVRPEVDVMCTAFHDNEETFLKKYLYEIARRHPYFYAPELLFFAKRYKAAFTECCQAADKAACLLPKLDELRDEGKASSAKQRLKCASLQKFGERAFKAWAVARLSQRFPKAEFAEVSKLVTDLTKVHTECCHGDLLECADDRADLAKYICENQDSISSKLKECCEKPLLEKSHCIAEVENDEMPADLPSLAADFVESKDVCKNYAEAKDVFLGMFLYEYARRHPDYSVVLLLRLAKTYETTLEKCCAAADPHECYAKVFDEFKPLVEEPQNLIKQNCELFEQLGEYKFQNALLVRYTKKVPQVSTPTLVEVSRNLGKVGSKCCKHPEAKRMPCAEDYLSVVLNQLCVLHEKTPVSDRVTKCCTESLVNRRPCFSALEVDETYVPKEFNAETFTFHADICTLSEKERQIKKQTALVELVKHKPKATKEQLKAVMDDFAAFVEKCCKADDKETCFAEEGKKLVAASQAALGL

Compound: [C-]#[O+].[C-]#[O+].[C-]#[O+].[C-]#[O+].[C-]#[O+].[Cl][Re] [[Re(CO)5Cl], rhenium(I) pentacarbonyl chloride]
- relative inhibition cathepsin B endopeptidase [1]: 6.7 ± 0.7%
- relative inhibition cathepsin B exopeptidase [2]: 12.2 ± 3.0%
- relative inhibition cathepsin L (cathepsin L): 1.6 ± 6.5%
- relative inhibition cathepsin V (cathepsin V): 4.6 ± 0.3%

Compound: [Re(CO)3(pth)(H2O)] [complex 4a]
- pKa (deprotonation of coordinated aqua ligand) ([3]; 0.1 M KCl, 25.0 °C): 10.27 ± 0.01
- pKa (deprotonation of coordinated aqua ligand) ([3]; 0.1 M KNO3): 10.15 ± 0.01
- fraction of aqua complex ([3]; pH = 7.4, based on the pKa values): 100%

Compound: Cc1ccc(C(C)C)cc1.[Cl-].[O-][n+]1ccccc1[S-].[Ru+2] [[Ru(cym)(pth)Cl], [ruthenium(η^6-p-cymene)(pyrithionato)(chlorido)]]
- relative inhibition cathepsin B endopeptidase [1]: 9.4 ± 1.8%
- relative inhibition cathepsin B exopeptidase [2]: 5.4 ± 7.2%
- relative inhibition cathepsin L (cathepsin L): 1.5 ± 1.5%
- relative inhibition cathepsin V (cathepsin V): 1.7 ± 5.7%
- log KQ quenching constant [4]: 5.81
- MIC S. aureus strain (S. aureus ATCC 25923 [5]): 50 µM
- inhibition of growth of the HSV-2 virus (HSV-2): did not inhibit the growth of the HSV-2 virus

Compound: N#Cc1ccccc1 [benzonitrile, reference compound]
- IC50 (Colo205 cells; COLO 205, 72 h): > 100000 nM
- MIC (S. aureus ATCC 25923 [6]): > 100 µM
- MIC [7]: > 100 µM
- MIC (E. coli ATCC 25922): > 100 µM

Compound: zinc pyrithione
- relative inhibition cathepsin B endopeptidase [1]: 8.7 ± 2.2%
- relative inhibition cathepsin B exopeptidase [2]: 11.1 ± 2.2%
- relative inhibition cathepsin L (cathepsin L): 1.3 ± 2.4%
- relative inhibition cathepsin V (cathepsin V): 1.9 ± 3.0%

Compound: COc1cccc2c1C(=O)c1c(O)c3c(c(O)c1C2=O)C[C@@](O)(C(=O)CO)C[C@@H]3O[C@H]1C[C@H](N)[C@H](O)[C@H](C)O1 [doxorubicin, reference compound]
- IC50 (Colo205 cells; COLO 205, 72 h incubation, MTT): 584 ± 55 nM
- IC50 (CCD-19Lu cells): 244 ± 26 nM

Compound: [O-][n+]1ccccc1S [pthH, Pyrithione]
- inhibition at 50 µM ([1]; pH 6, read-out: relative inhibition cathepsin B endopeptidase): 4.3 ± 2.3%
- relative inhibition cathepsin B exopeptidase [2]: n.i. ^a
- inhibition at 50 µM (cathepsin L; pH 5.5, read-out: relative inhibition cathepsin L): 0.5 ± 1.9%
- inhibition at 50 µM (cathepsin V; pH 5.5, read-out: relative inhibition cathepsin V): 2.3 ± 3.2%
